In patent US4452813A, “Sulfonate derivatives, process for preparing same and antilipemic compositions containing the derivative” (Taiho Pharmaceutical Company Limited, priority 1981, dated 1984):

Key:
[1] = test system: triglycerides content in the plasma; assay: Antilipemic effect: inhibition of olive oil-induced hyperlipidemia, plasma triglycerides; assay type: in vivo, male Wister rats; conditions: Rattus norvegicus, 100 mg compound in 5 ml olive oil, 5 ml/kg oral, 2 hours, read-out: Antilipemic effect IGI (%) (percent hyperlipidemia inhibition, triglycerides)
Protocol: Seven-week-old male Wister rats weighing 200 to 220 g are used, 5 rats in each group.
The compound of the invention (100 mg) is dissolved in 5 ml of olive oil. The olive oil containing the compound is orally given to the rat with a probe at a dose of 5 ml/kg. Two hours thereafter, 6 ml of whole blood is withdrawn from the descending aorta of the rat under ether anesthesia with a syringe containing heparin. The blood is centrifuged at 5° C. and 3000 r.p.m. to obtain the plasma. The plasma collected is used for determining the triglycerides content, using a triglycerides measuring kit (trade mark "Triglycerides-B Test Wako," product of Wako Junyaku Co., Ltd., Japan). Olive oil containing no compound is similarly given to a control group, while no treatment is conducted for a normal group. The triglycerides content in the plasma is also determined for these groups in the same manner as is the case with the test groups.
The percent hyperlipidemia inhibition achieved by the present compound is given by [formula] in which A is the triglycerides content of the control group, B is the triglycerides content of the normal group, and C is the triglycerides content of the group to which the present compound is given.

[2] = Acute toxicity, oral, one week; conditions: rat, in vivo, 5% gum arabic suspension
Description: Six-week-old male Wister rats weighing 180 to 200 g are used, 5 rats in each group. The present compound is suspended in a 5% aqueous solution of gum arabic, and the suspension is orally given to the rats. For one week after the start of the test, the rats are checked evey day for general toxicity symptoms, body weight and death to determine the LD50 value.

[3] = target: esterase (purified microsome fraction of the liver of a rat); assay: Esterase inhibiting activity (hydrolysis of methyl butyrate); assay type: biochemical; conditions: methyl butyrate substrate, pH 8.0, 37° C., 60 minutes
Protocol: 1. Esterase Inhibiting Activity
A 10 micromole quantity of methyl butyrate in a 50% ethanol solution is added as a substrate to a specified amount of buffer solution (pH 8.0) containing 0.1 mole of trishydrochloric acid. To the mixture is further added a 50% ethanol solution of the compound of the invention, immediately followed by addition of an esterase solution prepared from a purified microsome fraction of the liver of a rat (adjusted to hydrolyze 9 micromoles of methyl butyrate at 37° C. in one hour). The mixture is reacted at 37° C. for 60 minutes.
After the reaction, alkaline hydroxylamine is added to the mixture to form a hydroxamic acid derivative of methyl butyrate, and a ferric salt is added to the derivative. The resulting red color is colorimetrically determined (at a wavelength of 540 nm) to determine the amount of remaining methyl butyrate. The esterase inhibiting ratios of the present compound at least at three concentrations are plotted as ordinate, and the logarithms of the concentrations as abscissa to obtain a line, which gives the 50% inhibition concentration (IC50).

[4] = target: Chymotripsin (Bos taurus, UniProt P00766); assay: Chymotripsin inhibiting activity (hydrolysis of ATEE); assay type: biochemical; conditions: 0.5 h; 1 × 10^-4 mol; 20 min preincubation, ATEE 30 min, 37° C., pH 8.0
Protocol: 2. Chymotripsin Inhibiting Activity
Chymotripsin (0.1 unit) serving as an enzyme solution is added to a specified quantity of buffer solution (pH 8.0) containing 0.1 mole of trishydrochloric acid. To the mixture is further added a 50% ethanol solution of the compound of the invention. The mixture is reacted at 37° C. for 20 minutes.
On completion of the reaction, 10 micromoles of […] (ATEE) serving as a substrate is added to the mixture, and the resulting mixture is reacted at 37° C. for 30 minutes.
After the completion of the reaction, the amount of remaining ATEE is determined by the same hydroxamic acid method as above. The percent chymotripsin inhibition is given by [formula] wherein A is the amount of hydrolzed esters in the reaction system not containing the compound of the invention, and B is the amount of hydrolyzed esters in the reaction system containing the present compound.

Row | SMILES | inhibition in vivo at 100 mg/kg [1] | LD50 at 168 h [2] | IC50 [3] | inhibition at 100 µM [4]
1 | CC(CC(=O)COS(=O)(=O)c1ccccc1)C1CCCCC1 (stereo not shown) [Compound 8] | 73% | > 3000 mg/kg | 0.8 µM | 31%
2 | CCOc1ccc(S(=O)(=O)OCC(=O)[C@H]2CC[C@@H](C(C)C)CC2)cc1 [Compound 26] | 50% | > 3000 mg/kg | 11 µM | 14%
3 | CC(C)(C)[C@H]1CC[C@H](C(=O)COS(=O)(=O)c2ccccc2)CC1 [Compound 35] | 72% | > 3000 mg/kg | 4.6 µM | –
4 | Cc1ccc(S(=O)(=O)OCC(=O)CC2CCCCC2C)cc1 (stereo not shown) [Compound 18] | – | > 2000 mg/kg | 8.4 µM | 72%
5 | CC(CC1CCCCC1)C(=O)COS(=O)(=O)c1ccccc1 (stereo not shown) [Compound 1, 1-benzenesulfonyloxy-4-cyclohexyl-3-methyl-2-butanone] | 60% | > 2000 mg/kg | 0.35 µM | 100%
6 | CCOc1ccc(S(=O)(=O)OCC(=O)C(CC)CC2CCCCC2)cc1 (stereo not shown) [Compound 7] | 71% | > 3000 mg/kg | 200 µM | 13%
7 | CCOc1ccc(S(=O)(=O)OCC(=O)C2CCC(CC)CC2)cc1 (stereo not shown) [Compound 23] | 67% | > 3000 mg/kg | 1.4 µM | 24%
8 | CCC(C(=O)COS(=O)(=O)c1ccc(C)cc1)C1CCC(C)CC1 (stereo not shown) [Compound 13] | – | > 2000 mg/kg | 20 µM | 50%
9 | CCOc1ccc(S(=O)(=O)OCC(=O)CC(C)C2CCCCC2)cc1 (stereo not shown) [Compound 11] | 60% | > 3000 mg/kg | 7.2 µM | 19%
10 | CCC(C)[C@H]1CC[C@H](C(=O)COS(=O)(=O)c2ccccc2)CC1 (stereo partly shown) [Compound 33] | 76% | > 3000 mg/kg | 0.17 µM | 19%
11 | Cc1cc(C)c(S(=O)(=O)OCC(=O)CC(C)C2CCCCC2)c(C)c1 (stereo not shown) [Compound 12] | 39% | > 3000 mg/kg | 1 µM | 24%
12 | CCOc1ccc(S(=O)(=O)OCC(=O)CC2CCCCC2C)cc1 (stereo not shown) [Compound 19] | 74% | > 3000 mg/kg | 5.4 µM | 57%
13 | CCOc1ccc(S(=O)(=O)OCC(=O)C(CC)C2CCC(C)CC2)cc1 (stereo not shown) [Compound 14] | 81% | > 3000 mg/kg | 40 µM | 40%
14 | CC(C)C[C@H]1CC[C@H](C(=O)COS(=O)(=O)c2ccccc2)CC1 [Compound 31] | 79% | > 3000 mg/kg | 1.6 µM | 43%
15 | COc1ccc(S(=O)(=O)OCC(=O)C(C)CC2CCCCC2)cc1 (stereo not shown) [Compound 3] | 63% | > 3000 mg/kg | 4 µM | 93%
16 | CCC1CCC(C(=O)COS(=O)(=O)c2ccccc2)CC1 (stereo not shown) [Compound 22] | 59% | > 2000 mg/kg | 0.2 µM | 58%
17 | CC(C)[C@H]1CC[C@@H](C(=O)COS(=O)(=O)c2ccccc2)CC1 [Compound 24] | 60% | > 3000 mg/kg | 0.7 µM | 16%
18 | Cc1cc(C)c(S(=O)(=O)OCC(=O)[C@H]2CC[C@@H](C(C)C)CC2)c(C)c1 [Compound 28] | – | > 3000 mg/kg | 1.2 µM | –

Row | SMILES | inhibition in vivo at 100 mg/kg [1] | LD50 at 168 h [2] | IC50 [3] | inhibition at 100 µM [4]
19 | CC1CCCCC1CC(=O)COS(=O)(=O)c1ccccc1 (stereo not shown) [Compound 17, 1-benzenesulfonyloxy-3-(2-methylcyclohexyl)-2-propanone] | 72% | > 2000 mg/kg | 0.032 µM | 97%
20 | CC(C)(C)[C@H]1CC[C@@H](C(=O)COS(=O)(=O)c2ccccc2)CC1 [Compound 34] | 52% | > 3000 mg/kg | 4.6 µM | –
21 | COc1ccc(S(=O)(=O)OCC(=O)CC(C)C2CCCCC2)cc1 (stereo not shown) [Compound 10, 4-cyclohexyl-1-(4-methoxybenzenesulfonyloxy)2-pentanone] | 46% | > 3000 mg/kg | 3.5 µM | 22%
22 | CC(C)[C@H]1CC[C@H](C(=O)COS(=O)(=O)c2ccccc2)CC1 [Compound 25, trans-2-(benzene-sulfonyloxy)-1-(4-isopropylcyclohexyl)-1-ethanone] | 90% | > 3000 mg/kg | 0.065 µM | 62%
23 | Cc1ccc(S(=O)(=O)OCC(=O)CC(C)C2CCCCC2)cc1 (stereo not shown) [Compound 9] | 70% | > 2000 mg/kg | 4.2 µM | 31%
24 | Cc1ccc(S(=O)(=O)OCC(=O)C(C)CC2CCCCC2)cc1 (stereo not shown) [Compound 2] | 50% | > 2000 mg/kg | 7.8 µM | 90%
25 | Cc1ccc(S(=O)(=O)OCC(=O)CC2CCC(C)CC2)cc1 (stereo not shown) [Compound 15, 1-(4-methylcyclohexyl)-3-(p-toluenesulfonyloxy)-2-propanone] | 85% | > 2000 mg/kg | 1.4 µM | 94%
26 | CC(C)C1CCC(CC(=O)COS(=O)(=O)c2ccccc2)CC1 (stereo not shown) [Compound 21] | 70% | > 3000 mg/kg | 6 µM | 94%
27 | CCC(CC1CCCCC1)C(=O)COS(=O)(=O)c1ccc(OC)cc1 (stereo not shown) [Compound 6] | 52% | > 3000 mg/kg | – | –
28 | CCOc1ccc(S(=O)(=O)OCC(=O)CC2CCC(C)CC2)cc1 (stereo not shown) [Compound 16] | 11% | > 3000 mg/kg | 5 µM | 81%
29 | CCOc1ccc(S(=O)(=O)OCC(=O)[C@H]2CC[C@H](C(C)C)CC2)cc1 [Compound 27] | 76% | > 3000 mg/kg | 2 µM | 35%
30 | CCC(C)[C@H]1CC[C@@H](C(=O)COS(=O)(=O)c2ccccc2)CC1 (stereo partly shown) [Compound 32] | 61% | > 3000 mg/kg | 0.56 µM | 13%
31 | CCOc1ccc(S(=O)(=O)OCC(=O)C(C)CC2CCCCC2)cc1 (stereo not shown) [Compound 4] | 52% | > 3000 mg/kg | 23 µM | 78%
32 | Cc1cc(C)c(S(=O)(=O)OCC(=O)[C@H]2CC[C@H](C(C)C)CC2)c(C)c1 [Compound 29] | – | > 3000 mg/kg | 0.13 µM | –
33 | CC(C)C[C@H]1CC[C@@H](C(=O)COS(=O)(=O)c2ccccc2)CC1 [Compound 30] | 57% | > 3000 mg/kg | 4 µM | 30%
34 | Cc1ccc(S(=O)(=O)OCC(=O)[C@H]2CC[C@@H](C(C)(C)C)CC2)cc1 [Compound 36] | 52% | > 3000 mg/kg | 86 µM | 44%
35 | Cc1ccc(S(=O)(=O)OCC(=O)[C@H]2CC[C@H](C(C)(C)C)CC2)cc1 [Compound 37] | 66% | > 3000 mg/kg | 5.4 µM | 22%
